This test deals with T1, hTRPC5 (Homo sapiens, UniProt Q9UL62).
T1 construct: expressed in transfected cells; host or cells: HEK293 TREx cells with inducible TRPC5 expression
T1 sequence (Q9UL62 1-973): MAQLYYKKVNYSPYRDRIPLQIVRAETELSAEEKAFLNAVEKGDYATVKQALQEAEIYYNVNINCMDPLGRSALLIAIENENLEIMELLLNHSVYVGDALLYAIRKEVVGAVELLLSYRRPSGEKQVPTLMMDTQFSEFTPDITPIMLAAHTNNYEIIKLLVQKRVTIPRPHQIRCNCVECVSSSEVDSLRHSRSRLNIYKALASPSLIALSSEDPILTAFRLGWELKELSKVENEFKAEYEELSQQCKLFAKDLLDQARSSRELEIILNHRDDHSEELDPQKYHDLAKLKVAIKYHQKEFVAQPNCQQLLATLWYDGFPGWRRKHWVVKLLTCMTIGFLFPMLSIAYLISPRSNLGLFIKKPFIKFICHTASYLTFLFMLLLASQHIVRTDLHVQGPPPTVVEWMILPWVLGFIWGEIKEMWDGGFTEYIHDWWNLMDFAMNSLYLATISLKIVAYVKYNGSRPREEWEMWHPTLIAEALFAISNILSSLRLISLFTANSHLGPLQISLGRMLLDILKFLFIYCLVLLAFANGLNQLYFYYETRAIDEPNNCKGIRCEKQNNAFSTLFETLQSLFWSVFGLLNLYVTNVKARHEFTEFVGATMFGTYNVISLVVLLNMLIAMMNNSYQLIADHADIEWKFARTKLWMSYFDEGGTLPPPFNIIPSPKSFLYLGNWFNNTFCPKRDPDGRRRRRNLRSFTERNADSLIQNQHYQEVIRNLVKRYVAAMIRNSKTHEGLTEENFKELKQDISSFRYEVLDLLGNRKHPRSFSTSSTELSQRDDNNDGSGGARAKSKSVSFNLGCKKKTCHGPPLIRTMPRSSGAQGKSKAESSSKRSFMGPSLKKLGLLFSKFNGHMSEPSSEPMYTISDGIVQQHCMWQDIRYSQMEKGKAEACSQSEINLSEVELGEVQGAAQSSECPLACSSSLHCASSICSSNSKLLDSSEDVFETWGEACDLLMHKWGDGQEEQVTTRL
Kind of test: Whole-cell patch clamp, block of LaCl3-activated TRPC5 inward current. Format: cell-based. Conditions: TRPC5-expressing HEK293 TREx cells, 80 μM LaCl3, inward current, IC50 estimated from 5 μM and 500 nM, read-out: hTRPC5 Patch La3+ Inwd (nM) (All Batches). In short, it runs like this:
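Whole-cell recordings in induced TRPC5-expressing HEK293 TREx cells, holding −40 mV, 400 ms ramps −120 to +100 mV every 5 s; current activated by 80 μM external LaCl3 and 1,400 nM pipette free Ca2+ (pH 7.2 internal, 7.4 external). Inward block at −80 mV, with LaCl3 present; IC50 estimated from testing at 5 μM and 500 nM.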
For `COc1cccc(Cn2c(Oc3ccc(-c4ccccc4)nc3)nc3c2c(=O)n(C)c(=O)n3C)c1` [Compound 171], the IC50 was 2000 to 10000 nM.
In the case of `Cn1c(=O)c2c(nc(Nc3cccc(C(F)(F)F)c3)n2Cc2cccc(Br)c2)n(C)c1=O` [Compound 172], the IC50 is 2000 to 10000 nM.
In the case of `CCCC(O)c1cccc(Oc2nc3c(c(=O)n(C)c(=O)n3C)n2Cc2cccc(Br)c2)c1` (centres unmarked) [Compound 173, 7-(3-bromobenzyl)-8-(3-(1-hydroxybutyl)phenoxy)-1,3-dimethyl-1H-purine-2,6(3H,7H)-dione] it was 2000 to 10000 nM; in that of `CCCCc1cccc(Oc2nc3c(c(=O)n(C)c(=O)n3C)n2Cc2cccc(Br)c2)c1` [Compound 174, 7-(3-bromobenzyl)-8-(3-butylphenoxy)-1,3-dimethyl-1H-purine-2,6(3H,7H)-dione], 2000 to 10000 nM; in that of `Cc1ccc(Cn2c(Oc3cccc(OC(F)(F)F)c3)nc3c2c(=O)n(C)c(=O)n3C)cc1` [Compound 178, 1,3-dimethyl-7-(4-methylbenzyl)-8-(3-(trifluoromethoxy)phenoxy)-1H-purine-2,6(3H,7H)-dione], 100 to 500 nM.
Regarding `Cn1c(=O)c2c(nc(Oc3cccc(C(F)(F)F)c3)n2Cc2cccc3ccccc23)n(C)c1=O` [Compound 179, 1,3-dimethyl-7-(naphthalen-1-ylmethyl)-8-(3-(trifluoromethyl)phenoxy)-1H-purine-2,6(3H,7H)-dione], the IC50 is 100 to 500 nM.
For the compound `CCc1coc(CSc2nc3c(c(=O)n(C)c(=O)n3C)n2Cc2cccc(C(C)=O)c2)n1` [Compound 180, 7-(3-acetylbenzyl)-8-((4-ethyloxazol-2-yl)methylthio)-1,3-dimethyl-1H-purine-2,6(3H,7H)-dione], the IC50 was 2000 to 10000 nM.
Turning to `CCc1coc(CSc2nc3c(c(=O)n(C)c(=O)n3C)n2Cc2ccc(C(C)=O)cc2)n1` [Compound 181, 7-(4-acetylbenzyl)-8-((4-ethyloxazol-2-yl)methylthio)-1,3-dimethyl-1H-purine-2,6(3H,7H)-dione], the IC50 is 2000 to 10000 nM.
For the compound `CN(C)Cc1cccc(Cn2c(Oc3cccc(OC(F)(F)F)c3)nc3c2c(=O)n(C)c(=O)n3C)c1` [Compound 183], the IC50 was 2000 to 10000 nM.
As to `Cn1c(=O)c2c(nc(Oc3cncc(C(F)(F)F)c3)n2Cc2ccc(Cl)cc2)n(C)c1=O` [Compound 184, 7-(4-chlorobenzyl)-1,3-dimethyl-8-(5-(trifluoromethyl)pyridin-3-yloxy)-1H-purine-2,6(3H,7H)-dione], the IC50 was 1000 to 2000 nM.
`Cn1c(=O)c2c(nc(Oc3cccc(C(F)(F)F)c3)n2Cc2ccc3ccccc3c2)n(C)c1=O` [Compound 185, 1,3-dimethyl-7-(naphthalen-2-ylmethyl)-8-(3-(trifluoromethyl)phenoxy)-1H-purine-2,6(3H,7H)-dione]: the IC50 was 2000 to 10000 nM.
In the case of `CN(C)Cc1ccc(Cn2c(Oc3cccc(OC(F)(F)F)c3)nc3c2c(=O)n(C)c(=O)n3C)cc1` [Compound 186] it was 2000 to 10000 nM; in that of `CC(c1ccc(Cl)cc1)n1c(Oc2cccc(C(F)(F)F)c2)nc2c1c(=O)n(C)c(=O)n2C` (centres unmarked) [Compound 187, 7-(1-(4-chlorophenyl)ethyl)-1,3-dimethyl-8-(3-(trifluoromethyl)phenoxy)-1H-purine-2,6(3H,7H)-dione], 100 to 500 nM; in that of `COc1cccc(Cn2c(Oc3ccc(-c4ccccn4)cc3)nc3c2c(=O)n(C)c(=O)n3C)c1` [Compound 189, 7-(3-methoxybenzyl)-1,3-dimethyl-8-(4-(pyridin-2-yl)phenoxy)-1H-purine-2,6(3H,7H)-dione], 2000 to 10000 nM.
Turning to `Cn1c(=O)c2c(nc(Oc3cccc(C(F)(F)F)c3)n2S(=O)(=O)c2ccc(Cl)cc2)n(C)c1=O` [Compound 190], the IC50 is 2000 to 10000 nM.
On to `Cn1c(=O)c2c(nc(Oc3cccc(OC(F)(F)F)c3)n2Cc2ccc3ccccc3c2)n(C)c1=O` [Compound 191, 1,3-dimethyl-7-(naphthalen-2-ylmethyl)-8-(3-(trifluoromethoxy)phenoxy)-1H-purine-2,6(3H,7H)-dione], for which the IC50 was below 100 nM.
`Cn1c(=O)c2c(nc(Sc3cccc(C(F)(F)F)c3)n2Cc2ccc(Cl)cc2)n(C)c1=O` [Compound 192, 7-(4-chlorobenzyl)-1,3-dimethyl-8-(3-(trifluoromethyl)phenylthio)-1H-purine-2,6(3H,7H)-dione]: the IC50 was 100 to 500 nM.
With `COc1cccc(Cn2c(Oc3ccc(Br)cc3)nc3c2c(=O)n(C)c(=O)n3C)c1` [Compound 194, 8-(4-bromophenoxy)-7-(3-methoxybenzyl)-1,3-dimethyl-1H-purine-2,6(3H,7H)-dione], the IC50 is 1000 to 2000 nM.
In the case of `Cn1c(=O)c2c(nc(Oc3cccc(C(F)(F)F)c3)n2CCCc2ccc(Cl)cc2)n(C)c1=O` [Compound 195] it was 2000 to 10000 nM; in that of `Cn1c(=O)c2c(nc(Oc3cccc(C(F)(F)F)c3)n2-c2ccc(Cl)cc2)n(C)c1=O` [Compound 196], 2000 to 10000 nM; in that of `Cn1c(=O)c2c(nc(Oc3cccc(OC(F)(F)F)c3)n2Cc2ccc(Cl)c(Cl)c2)n(C)c1=O` [Compound 197, 7-(3,4-dichlorobenzyl)-1,3-dimethyl-8-(3-(trifluoromethoxy)phenoxy)-1H-purine-2,6(3H,7H)-dione], below 100 nM.
Turning to `Cn1c(=O)c2c(nc(Oc3cccc(OC(F)(F)F)c3)n2Cc2ccc(Cl)c(F)c2)n(C)c1=O` [Compound 198, 7-(4-chloro-3-fluorobenzyl)-1,3-dimethyl-8-(3-(trifluoromethoxy)phenoxy)-1H-purine-2,6(3H,7H)-dione], the IC50 was below 100 nM.
With `Cc1ccc(Oc2nc3c(c(=O)n(C)c(=O)n3C)n2Cc2ccc(Cl)cc2)cc1C(F)(F)F` [Compound 199], the IC50 was 2000 to 10000 nM.
As for `Cn1c(=O)c2c(nc(Oc3cc(Cl)cc(OC(F)(F)F)c3)n2Cc2ccc(Cl)cc2)n(C)c1=O` [Compound 202, 8-(3-chloro-5-(trifluoromethoxy)phenoxy)-7-(4-chlorobenzyl)-1,3-dimethyl-1H-purine-2,6(3H,7H)-dione], the IC50 is below 100 nM.
Regarding `Cn1c(=O)c2c(nc(Oc3cccc(OC(F)(F)F)c3)n2Cc2cc(Cl)cc(Cl)c2)n(C)c1=O` [Compound 204, 7-(3,5-dichlorobenzyl)-1,3-dimethyl-8-(3-(trifluoromethoxy)phenoxy)-1H-purine-2,6(3H,7H)-dione], the IC50 is below 100 nM.
Take `COc1cc(Cn2c(Oc3cccc(OC(F)(F)F)c3)nc3c2c(=O)n(C)c(=O)n3C)ccc1Cl` [Compound 205, 7-(4-chloro-3-methoxybenzyl)-1,3-dimethyl-8-(3-(trifluoromethoxy)phenoxy)-1H-purine-2,6(3H,7H)-dione]: the IC50 is 100 to 500 nM.
Consider `Cc1cc(Cn2c(Oc3cccc(OC(F)(F)F)c3)nc3c2c(=O)n(C)c(=O)n3C)ccc1Cl` [Compound 206, 7-(4-chloro-3-methylbenzyl)-1,3-dimethyl-8-(3-(trifluoromethoxy)phenoxy)-1H-purine-2,6(3H,7H)-dione], for which the IC50 was below 100 nM.
With `Cc1c(Oc2nc3c(c(=O)n(C)c(=O)n3C)n2Cc2ccc(Cl)cc2)cccc1C(F)(F)F` [Compound 207, 7-(4-chlorobenzyl)-1,3-dimethyl-8-(2-methyl-3-(trifluoromethyl)phenoxy)-1H-purine-2,6(3H,7H)-dione], the IC50 was 2000 to 10000 nM.
With `CCCCCCOc1nc2c(c(=O)n(C)c(=O)n2C)n1Cc1ccc(Cl)cc1` [Compound 215, 7-(4-Chlorobenzyl)-8-(hexyloxy)-1,3-dimethyl-1H-purine-2,6(3H,7H)-dione], the IC50 is below 100 nM.

The values are drawn from patent publication US20160145257A1, “SUBSTITUTED XANTHINES AND METHODS OF USE THEREOF” (Hydra Biosciences, Inc., priority 2013, published 2016).
